Data on 15 molecules can be found in patent US12624044B2, “SMARCA degraders and uses thereof” (Kymera Therapeutics, Inc., priority 2019, dated 2026).

Holding throughout (format): cell-based
One experiment addresses T1, SMARCA4 (Homo sapiens, UniProt P51532).
T1 construct: SMARCA2 and SMARCA4 protein degradation in MV4-11 cells; endogenous in cells; host or cells: MV4-11
Put plainly: SMARCA4 Western blot MV4-11 degradation. The note with it: for SMARCA4 WB MV411 degradation 24 h: Average Dmax % / DC50: MV4-11 cells; for DC50 / Dmax: 24 h; for DC50: read-out: SMARCA4 WB MV411 degradation 24 h: Average external-Abs DC50; for Dmax: MV4-11, MV4-11 cells, read-out: SMARCA4 WB MV411 degradation 24 h: Average Dmax %. The method, boiled down: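 MV4-11 cells treated with compound for 24 h, lysed in RIPA with protease/phosphatase inhibitors, and SMARCA2 and SMARCA4 (BRG1) levels assessed by Western blot with β-actin loading control and LI-COR fluorescent read-out. Maximal degradation (Dmax %) after 24 h binned into letter codes.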
On the technique in general: Immunoblotting shows a protein as a band on a membrane.

Experiment [1] concerns the target T2, SMARCA2 (Homo sapiens, UniProt P51531). Put plainly: SMARCA2 Western blot MV4-11 degradation. The note with it: for SMARCA2 WB MV411 degradation 24 h: Average Dmax % / DC50: MV4-11 cells; for DC50 / Dmax: 24 h; for DC50: read-out: SMARCA2 WB MV411 degradation 24 h: Average external-Abs DC50; for Dmax: MV4-11, MV4-11 cells, read-out: SMARCA2 WB MV411 degradation 24 h: Average Dmax %. On the procedure: Cells were seeded into 6-well plates (MV4-11: 4×10^6 cells/well/1 ml) and 1 ml of 2× compound solution was added into the well to make the final concentration and the plates were mixed well and incubated for 24 hours (No cytotoxicity was observed). The cell were collected with media and spun at 3000 rpm for 5 minutes. The supernatant was aspirated and the well and the cells were washed with cold PBS once and combined for centrifugation again; the supernatant aspirated again. 200 ul pre-chilled RIPAlysis buffer (Boston BioProducts BP-115D) with protease/phosphatase inhibitor (Roche 05892791001/Roche 04906837001) was directly added into the tube to lyze the cells for 20 minutes on ice. The cell lysate were collected into EP tubes and spun at 13000 rpm for 20 minutes and 72 ul supernatant was transferred to a fresh EP tube containing 18 ul of 5× loading buffer (Beyotime Bio P0015) to make the loading samples. The samples were heated to 100° C. for 10 minutes and cooled to RT and microcentrifuged. 20 ul of samples were loaded onto SDS-PAGE gel (Novex, WG1402BOX) and the gel was run at 80 V for 20 minutes and 120 V for 1.5 hours. The samples were electrotransfer to a NC membrane using wet-transfer method with 250 mA for 2.5 hours. The membrane was blocked with LICOR blocking buffer (LI-COR, 927-50000) for 1 hour. The membrane was washed three times with TBST (CST #9997S), 5 minutes each. Incubation was performed with primary antibody prepared in blocking buffer with 0.1% Tween-20 (Solarbio, P8220) at 4° C. overnight (Anti-SMARCA2/BRM antibody (ab15597) 1:500; Anti-BRG1 antibody [EPR3912] (ab108318) 1:1000; Rabbit anti-Baf180 antibody [EPR15860] (Abcam, ab196022) 1:1000; mouse anti-beta-Actin (8H10D10) (CST #3700) 1:10000). The membrane was washed three times with TBST, 5 minutes each. Incubation with secondary antibody was performed for 1 hour at RT (anti-rabbit IgG (Licor, 926-32211) 1:5000; anti-mouse IgG (LI-COR, 926-68070) 1:5000). The membrane was washed three times with TBST, 5 minutes each and lastly the LiCOR was read.
The letter codes for the percentage of SMARCA degradation after 24 hours (Dmax %) include: A (>90% degradation), B (>70-90% degradation), C (50-70% degradation), and D (<50% degradation).

Experiment [2] concerns the target T2, SMARCA2. Description: MSD SMARCA2 degradation in A549 cell line. The note with it: for SMARCA2 MSD A549 degradation 24 h: Average Dmax % / DC50: A549 cells; for DC50 / Dmax: 24 h; for DC50: read-out: SMARCA2 MSD A549 degradation 24 h: Average external-Abs DC50; for Dmax: A549, A549 cells. A digest of the protocol: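 A549 cells treated 24 h with compound at final 0.152-1000 nM (3-fold series, DMSO control). Lysates analyzed by MSD immunoassay using anti-SMARCA2/BRM detection and SULFO-TAG secondary antibodies; maximal degradation (Dmax %) reported as letter bins.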

T2 sequence (P51531 whole entry): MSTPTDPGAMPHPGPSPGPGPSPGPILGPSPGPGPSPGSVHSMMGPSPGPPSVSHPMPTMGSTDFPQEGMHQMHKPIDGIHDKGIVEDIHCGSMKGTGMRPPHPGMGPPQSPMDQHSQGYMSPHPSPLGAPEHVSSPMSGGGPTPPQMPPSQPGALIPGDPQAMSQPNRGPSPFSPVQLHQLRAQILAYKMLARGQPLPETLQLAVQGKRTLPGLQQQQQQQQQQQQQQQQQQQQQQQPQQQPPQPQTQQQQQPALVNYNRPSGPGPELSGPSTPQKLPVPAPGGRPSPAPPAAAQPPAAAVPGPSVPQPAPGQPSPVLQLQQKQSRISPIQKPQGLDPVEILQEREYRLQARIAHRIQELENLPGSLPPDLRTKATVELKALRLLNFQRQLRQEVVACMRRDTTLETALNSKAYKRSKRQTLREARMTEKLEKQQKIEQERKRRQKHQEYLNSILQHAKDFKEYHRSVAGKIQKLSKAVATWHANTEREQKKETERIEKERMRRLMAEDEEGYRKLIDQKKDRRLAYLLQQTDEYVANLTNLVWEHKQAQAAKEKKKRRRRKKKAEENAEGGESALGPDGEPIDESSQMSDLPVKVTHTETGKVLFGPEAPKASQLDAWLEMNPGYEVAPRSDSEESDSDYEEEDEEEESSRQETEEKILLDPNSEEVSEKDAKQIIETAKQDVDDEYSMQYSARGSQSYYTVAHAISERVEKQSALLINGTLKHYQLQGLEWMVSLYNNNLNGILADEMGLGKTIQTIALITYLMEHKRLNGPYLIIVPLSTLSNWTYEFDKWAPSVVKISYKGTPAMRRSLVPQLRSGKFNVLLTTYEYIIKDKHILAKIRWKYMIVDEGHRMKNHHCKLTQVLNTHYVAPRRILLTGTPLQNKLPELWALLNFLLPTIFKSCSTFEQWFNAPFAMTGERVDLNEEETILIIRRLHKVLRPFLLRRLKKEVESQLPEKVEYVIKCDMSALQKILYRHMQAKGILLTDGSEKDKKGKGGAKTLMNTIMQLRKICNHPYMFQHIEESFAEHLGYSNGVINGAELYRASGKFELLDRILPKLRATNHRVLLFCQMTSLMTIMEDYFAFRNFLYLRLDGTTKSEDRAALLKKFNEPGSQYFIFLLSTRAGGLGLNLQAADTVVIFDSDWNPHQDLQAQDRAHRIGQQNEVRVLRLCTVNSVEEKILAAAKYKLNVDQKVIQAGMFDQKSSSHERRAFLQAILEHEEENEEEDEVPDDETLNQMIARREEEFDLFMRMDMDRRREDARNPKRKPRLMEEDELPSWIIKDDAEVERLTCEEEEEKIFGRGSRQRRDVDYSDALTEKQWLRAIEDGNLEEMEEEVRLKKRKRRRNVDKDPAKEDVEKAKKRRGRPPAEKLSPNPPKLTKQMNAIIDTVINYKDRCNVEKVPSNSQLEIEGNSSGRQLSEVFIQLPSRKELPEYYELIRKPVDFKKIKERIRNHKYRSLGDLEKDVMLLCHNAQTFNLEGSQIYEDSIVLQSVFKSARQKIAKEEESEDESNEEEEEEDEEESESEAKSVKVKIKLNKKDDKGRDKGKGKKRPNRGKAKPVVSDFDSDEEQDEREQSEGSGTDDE
T1 sequence (P51532 whole entry): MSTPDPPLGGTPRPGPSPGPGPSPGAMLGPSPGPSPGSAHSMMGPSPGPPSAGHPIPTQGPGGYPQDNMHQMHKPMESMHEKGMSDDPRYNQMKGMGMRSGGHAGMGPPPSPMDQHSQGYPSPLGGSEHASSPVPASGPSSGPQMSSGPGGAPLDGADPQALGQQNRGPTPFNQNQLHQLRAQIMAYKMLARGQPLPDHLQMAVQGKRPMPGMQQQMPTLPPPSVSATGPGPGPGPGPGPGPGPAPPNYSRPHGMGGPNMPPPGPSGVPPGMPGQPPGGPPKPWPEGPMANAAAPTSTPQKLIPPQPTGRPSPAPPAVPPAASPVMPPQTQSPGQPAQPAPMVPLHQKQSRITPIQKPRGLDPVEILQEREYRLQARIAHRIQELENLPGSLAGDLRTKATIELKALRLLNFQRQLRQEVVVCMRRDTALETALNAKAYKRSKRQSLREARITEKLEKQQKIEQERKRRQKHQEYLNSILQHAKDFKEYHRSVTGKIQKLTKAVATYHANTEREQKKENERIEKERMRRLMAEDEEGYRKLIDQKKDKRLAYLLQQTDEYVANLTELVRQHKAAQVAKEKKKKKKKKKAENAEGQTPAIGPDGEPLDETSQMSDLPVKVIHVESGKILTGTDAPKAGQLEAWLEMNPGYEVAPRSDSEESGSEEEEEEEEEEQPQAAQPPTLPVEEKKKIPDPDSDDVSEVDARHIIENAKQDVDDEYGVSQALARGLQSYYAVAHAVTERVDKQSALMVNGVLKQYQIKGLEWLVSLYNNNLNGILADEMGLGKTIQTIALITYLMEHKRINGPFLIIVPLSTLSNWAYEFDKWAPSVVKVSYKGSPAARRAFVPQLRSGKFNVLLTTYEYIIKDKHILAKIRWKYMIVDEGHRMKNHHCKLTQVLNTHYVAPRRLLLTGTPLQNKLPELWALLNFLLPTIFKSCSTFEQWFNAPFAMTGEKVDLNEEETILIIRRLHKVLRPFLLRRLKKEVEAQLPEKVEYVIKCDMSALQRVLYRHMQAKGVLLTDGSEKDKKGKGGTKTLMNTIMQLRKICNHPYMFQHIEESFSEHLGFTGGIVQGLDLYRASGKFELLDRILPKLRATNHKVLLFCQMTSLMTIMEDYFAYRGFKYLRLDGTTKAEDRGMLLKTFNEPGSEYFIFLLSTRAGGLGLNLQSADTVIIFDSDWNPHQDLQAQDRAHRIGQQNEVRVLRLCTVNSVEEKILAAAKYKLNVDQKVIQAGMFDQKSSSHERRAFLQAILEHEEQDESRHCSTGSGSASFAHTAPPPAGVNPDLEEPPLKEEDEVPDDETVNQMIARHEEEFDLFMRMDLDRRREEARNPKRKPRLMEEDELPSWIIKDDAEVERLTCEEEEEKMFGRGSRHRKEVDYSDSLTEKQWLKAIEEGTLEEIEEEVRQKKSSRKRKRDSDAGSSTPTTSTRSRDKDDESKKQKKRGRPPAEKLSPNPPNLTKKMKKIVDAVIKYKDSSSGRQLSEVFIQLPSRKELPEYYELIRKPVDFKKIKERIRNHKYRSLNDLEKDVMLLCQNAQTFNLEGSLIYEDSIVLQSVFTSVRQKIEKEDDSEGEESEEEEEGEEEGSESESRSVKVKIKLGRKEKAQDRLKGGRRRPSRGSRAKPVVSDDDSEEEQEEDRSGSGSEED

One may read the DC50 as the midpoint of the concentration-degradation curve. Regarding `Cc1ncsc1-c1ccc(CNC(=O)[C@@H]2C[C@@H](O)CN2C(=O)[C@@H](NC(=O)[C@H]2C[C@]3(C2)C[C@H](c2cnc(N4C5CCC4CN(c4cc(-c6ccccc6O)nnc4N)C5)nc2)C3)C(C)(C)C)c(C(F)(F)F)c1` (stereo partly drawn) [I-420], on SMARCA4, the “SMARCA4 WB MV411 degradation 24 h: Average Dmax %” value is recorded as “D (D (<50% degradation))” and the DC50 was in the range of 100 to 500 nM. Further, at SMARCA2 [1], the “SMARCA2 WB MV411 degradation 24 h: Average Dmax %” value was “B (B (>70-90% degradation))” and the 50% degradation concentration (DC50) is below 100 nM. Moreover, on SMARCA2 [2], the “SMARCA2 MSD A549 degradation 24 h: Average Dmax %” value was “A (A (>90% degradation))” and the DC50 is 100 to 500 nM.

Usually Dmax stands for the largest share of the target that was removed. For `Cc1ncsc1-c1ccc(CNC(=O)[C@@H]2C[C@@H](O)CN2C(=O)[C@@H](NC(=O)[C@H]2CC3(C2)C[C@H](c2cnc(N4C5CCC4CN(c4cc(-c6ccccc6O)nnc4N)C5)nc2)C3)C(C)(C)C)cc1` (stereo partly drawn) [I-368], the greatest degradation seen (Dmax) on SMARCA4, on SMARCA2 [1] and at SMARCA2 [2] was above 90% throughout. For the same molecule, the DC50 on SMARCA4, at SMARCA2 [1] and at SMARCA2 [2] was below 100 nM in each case.

`Cc1ncsc1-c1ccc(CNC(=O)[C@@H]2C[C@@H](O)CN2C(=O)[C@@H](NC(=O)[C@H]2CC3(C2)C[C@H](c2cnc(N4C5CCC4CN(c4cc(-c6ccccc6O)nnc4N)C5)nc2)C3)C(C)(C)C)c(C(F)(F)F)c1` (stereo partly drawn) [I-419]: the Dmax is 70 to 90% on SMARCA4, above 90% on SMARCA2 [1] and above 90% on SMARCA2 [2]. The DC50 is 100 to 500 nM on SMARCA4, below 100 nM on SMARCA2 [1] and 100 to 500 nM at SMARCA2 [2].

For the molecule `Cc1ncsc1-c1ccc(CNC(=O)[C@@H]2C[C@@H](O)CN2C(=O)[C@@H](NC(=O)C23CCC(CN4CCC(c5cnc(N6C7CCC6CN(c6cc(-c8ccccc8O)nnc6N)C7)nc5)CC4)(CC2)CC3)C(C)(C)C)cc1` [I-425], the values for the Dmax on SMARCA4, at SMARCA2 [1] and at SMARCA2 [2] were 70 to 90%, above 90% and above 90%, respectively. For the same molecule, the results for the 50% degradation concentration (DC50) on SMARCA4, on SMARCA2 [1] and on SMARCA2 [2] were 100 to 500 nM, below 100 nM and below 100 nM, respectively.

With `Cc1ncsc1-c1ccc(CNC(=O)[C@@H]2C[C@@H](O)CN2C(=O)[C@@H](NC(=O)[C@H]2C[C@@]3(C2)C[C@H](c2ccc(CN4CCC(Cn5cc(-c6cc(-c7ccccc7O)nnc6N)cn5)CC4)cc2)C3)C(C)(C)C)cc1` (stereo partly drawn) [I-434], at SMARCA4, the “SMARCA4 WB MV411 degradation 24 h: Average Dmax %” value is “A (A (>90% degradation))” and the 50% degradation concentration (DC50) was below 100 nM. At SMARCA2 [1], the “SMARCA2 WB MV411 degradation 24 h: Average Dmax %” value is “A (A (>90% degradation))” and the DC50 was below 100 nM. At SMARCA2 [2], the “SMARCA2 MSD A549 degradation 24 h: Average Dmax %” value is given as “A (A (>90% degradation))” and the 50% degradation concentration (DC50) is below 100 nM.

For `Cc1ncsc1-c1ccc(CNC(=O)[C@@H]2C[C@@H](O)CN2C(=O)[C@@H](NC(=O)C2CCC(c3cnc(N4C5CCC4CN(c4cc(-c6ccccc6O)nnc4N)C5)nc3)CC2)C(C)(C)C)cc1` (stereo partly drawn) [I-503], the Dmax at SMARCA4, on SMARCA2 [1] and on SMARCA2 [2] was above 90% throughout. Also, the DC50 at SMARCA4, at SMARCA2 [1] and at SMARCA2 [2] was below 100 nM throughout.

For the molecule `Cc1ncsc1-c1ccc(CNC(=O)[C@@H]2C[C@@H](O)CN2C(=O)[C@@H](NC(=O)[C@H]2CC[C@H](c3cnc(N4C5CCC4CN(c4cc(-c6ccccc6O)nnc4N)C5)nc3)CC2)C(C)(C)C)c(OC(F)(F)F)c1` [I-405], the Dmax at SMARCA4, at SMARCA2 [1] and at SMARCA2 [2] was above 90% in each case. The DC50 on SMARCA4 is 100 to 500 nM; at SMARCA2 [1], below 100 nM; on SMARCA2 [2] it was below 100 nM.

For the molecule `Cc1ncsc1-c1ccc(CNC(=O)[C@@H]2C[C@@H](O)CN2C(=O)[C@@H](NC(=O)[C@H]2CC[C@H](CCN3CCC(n4cc(-c5cc(-c6ccccc6O)nnc5N)cn4)CC3)CC2)C(C)(C)C)cc1` [I-399], the Dmax on SMARCA4 was 50 to 70%; at SMARCA2 [1], above 90%; at SMARCA2 [2], above 90%. Further, the 50% degradation concentration (DC50) is 100 to 500 nM at SMARCA4, below 100 nM on SMARCA2 [1] and below 100 nM on SMARCA2 [2].

With `Cn1c(=O)n(C2CCC(=O)NC2=O)c2cccc(C3CCC(N4CCC(n5cc(-c6cc(-c7ccccc7O)nnc6N)cn5)CC4)CC3)c21` (stereo not drawn) [I-321], the Dmax on SMARCA4, on SMARCA2 [1] and at SMARCA2 [2] was above 90% each time. Moreover, the DC50 at SMARCA4, at SMARCA2 [1] and at SMARCA2 [2] was below 100 nM in each case.

Regarding `CC(=O)Nc1cc(-c2scnc2C)ccc1CNC(=O)[C@@H]1C[C@@H](O)CN1C(=O)[C@@H](NC(=O)[C@H]1CC[C@H](c2cnc(N3C4CCC3CN(c3cc(-c5ccccc5O)nnc3N)C4)nc2)CC1)C(C)(C)C` [I-430, (2S,4R)—N-(2-acetamido-4-(4-methylthiazol-5-yl)benzyl)-1-((2S)-2-((1r,4S)-4-(2-(3-(3-amino-6-(2-hydroxyphenyl)pyridazin-4-yl)-3,8-diazabicyclo [3.2.1]octan-8-yl)pyrimidin-5-yl)cyclohexanecarboxamido)-3,3-dimethylbutanoyl)-4-hydroxypyrrolidine-2-carboxamide], the maximal degradation (Dmax) on SMARCA4, at SMARCA2 [1] and on SMARCA2 [2] was above 90% in each case. Moreover, the DC50 on SMARCA4, at SMARCA2 [1] and on SMARCA2 [2] was below 100 nM each time.

As for `Cc1ncsc1-c1ccc(CNC(=O)[C@@H]2C[C@@H](O)CN2C(=O)[C@@H](NC(=O)[C@H]2CC3(C2)C[C@H](N2CCC(c4cnc(N5C6CCC5CN(c5cc(-c7ccccc7O)nnc5N)C6)nc4)CC2)C3)C(C)(C)C)cc1` (stereo partly drawn) [I-424], on SMARCA4, the “SMARCA4 WB MV411 degradation 24 h: Average Dmax %” value was “D (D (<50% degradation))” and the DC50 was above 1000 nM. Also, on SMARCA2 [1], the “SMARCA2 WB MV411 degradation 24 h: Average Dmax %” value was “A (A (>90% degradation))” and the DC50 was below 100 nM. Besides, on SMARCA2 [2], the “SMARCA2 MSD A549 degradation 24 h: Average Dmax %” value is reported as “A (A (>90% degradation))” and the DC50 is below 100 nM.

For `Cc1ncsc1-c1ccc(CNC(=O)[C@@H]2C[C@@H](O)CN2C(=O)[C@@H](NC(=O)[C@H]2CC=C(c3cnc(N4C5CCC4CN(c4cc(-c6ccccc6O)nnc4N)C5)nc3)CC2)C(C)(C)C)cc1` [I-407], the Dmax on SMARCA4, at SMARCA2 [1] and at SMARCA2 [2] was above 90% each time. The DC50 is below 100 nM at SMARCA4, below 100 nM on SMARCA2 [1] and 100 to 500 nM on SMARCA2 [2].

`Cc1ncsc1-c1ccc(CNC(=O)[C@@H]2C[C@@H](O)CN2C(=O)[C@@H](NC(=O)[C@H]2CC[C@H](Cc3ccc(-c4cnc(N5C6CCC5CN(c5cc(-c7ccccc7O)nnc5N)C6)nc4)cc3)CC2)C(C)(C)C)cc1` [I-437]: the Dmax on SMARCA4, at SMARCA2 [1] and on SMARCA2 [2] was above 90% in each case. Further, the results for the DC50 on SMARCA4, at SMARCA2 [1] and at SMARCA2 [2] were 100 to 500 nM, below 100 nM and below 100 nM, respectively.

Turning to `Cc1ncsc1-c1ccc(CNC(=O)[C@@H]2C[C@@H](O)CN2C(=O)[C@@H](NC(=O)C2CCC(CN3CCC(n4cc(-c5cc(-c6ccccc6O)nnc5N)cn4)CC3)CC2)C(C)(C)C)cc1` (stereo partly drawn) [I-327], the Dmax at SMARCA4 was below 50%; at SMARCA2 [1], above 90%; at SMARCA2 [2], above 90%. Further, the DC50 at SMARCA4 is above 1000 nM; at SMARCA2 [1] it was below 100 nM; at SMARCA2 [2], 100 to 500 nM.

`Cc1ncsc1-c1ccc(C2(NC(=O)[C@@H]3C[C@@H](O)CN3C(=O)[C@@H](NC(=O)[C@H]3CC[C@H](c4cnc(N5C6CCC5CN(c5cc(-c7ccccc7O)nnc5N)C6)nc4)CC3)C(C)(C)C)CC2)cc1` [I-439]: the Dmax at SMARCA4, on SMARCA2 [1] and on SMARCA2 [2] was above 90% each time. Also, the half-maximal degradation concentration (DC50) at SMARCA4, on SMARCA2 [1] and on SMARCA2 [2] was below 100 nM throughout.
